# Data taken from ChEMBL document CHEMBL1201862, “PubChem BioAssay data set” (2004).
#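 Five concentrations, 48 hours, 96-well plates. GI50 = concentration required for 50% inhibition of growth.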 Calls of active or inactive are those of the source. Rule as the data show it: active = GI50 up to about 1.1 µM and inactive = higher.
# Assays:
# Test in all cases: NCI-60 cell line screen, 48 h
# [1] = test system: NCI-H23
# [2] = test system: ACHN
# [3] = test system: K562
# [4] = test system: SN12C
# [5] = test system: IGROV-1
# [6] = test system: SR
# [7] = test system: SK-MEL-28
# [8] = test system: OVCAR-8
# [9] = test system: SF-295
# [10] = test system: KM-20L2
# [11] = test system: HL-60
# [12] = test system: SW-620
# [13] = test system: UO-31
# [14] = test system: NCI-H522
# [15] = test system: HCT-116
# [16] = test system: LOX IMVI
# [17] = test system: HCC 2998
# [18] = test system: M19-MEL
# [19] = test system: XF498
# [20] = test system: U-251
# [21] = test system: SNB-19
# [22] = test system: NCI-H226
# [23] = test system: DMS-273
# [24] = test system: RPMI-8226
# [25] = test system: LXFL 529
# [26] = test system: M14
# [27] = test system: OVCAR-3
# [28] = test system: SF-268
# [29] = test system: TK-10
# [30] = test system: A549
# [31] = test system: 786-0
# [32] = test system: KM12
# [33] = test system: CCRF-CEM
# [34] = test system: NCI-H460
# [35] = test system: SK-OV-3
# [36] = test system: EKVX
# [37] = test system: MOLT-4
# [38] = test system: DMS-114
# [39] = test system: COLO 205
# [40] = test system: HT-29
# [41] = test system: SK-MEL-5
# [42] = test system: Malme-3M
# [43] = test system: HOP-62
# [44] = test system: SF-539
# [45] = test system: UACC-257
# [46] = test system: UACC-62
# [47] = test system: HCT-15
# [48] = test system: OVCAR-4
# [49] = test system: A498
# [50] = test system: SNB-75
# [51] = test system: DLD-1
# [52] = test system: CAKI-1
# [53] = test system: OVCAR-5
# [54] = test system: SK-MEL-2
# [55] = test system: HOP-18
# [56] = test system: RXF 393
# [57] = test system: SNB-78
# [58] = test system: HOP-92
structure (smiles),measurement,setting,value
CCCCc1c2c(nc3c1CCC/C3=C\c1ccccc1)/C(=C/c1ccccc1)CCC2,GI50,[1],> 100 µM (inactive)
same,GI50,[2],> 100 µM (inactive)
same,GI50,[3],> 100 µM (inactive)
same,GI50,[4],> 100 µM (inactive)
same,GI50,[5],> 100 µM (inactive)
same,GI50,[6],> 100 µM (inactive)
same,GI50,[7],> 100 µM (inactive)
same,GI50,[8],> 100 µM (inactive)
same,GI50,[9],> 100 µM (inactive)
same,GI50,[10],> 100 µM (inactive)
same,GI50,[11],> 100 µM (inactive)
same,GI50,[12],> 100 µM (inactive)
same,GI50,[13],> 100 µM (inactive)
same,GI50,[14],> 100 µM (inactive)
same,GI50,[15],> 100 µM (inactive)
same,GI50,[16],> 100 µM (inactive)
same,GI50,[17],> 100 µM (inactive)
same,GI50,[18],> 100 µM (inactive)
same,GI50,[19],> 100 µM (inactive)
same,GI50,[20],> 100 µM (inactive)
same,GI50,[21],> 100 µM (inactive)
same,GI50,[22],> 100 µM (inactive)
same,GI50,[23],> 100 µM (inactive)
same,GI50,[24],> 100 µM (inactive)
same,GI50,[25],> 100 µM (inactive)
same,GI50,[26],> 100 µM (inactive)
same,GI50,[27],> 100 µM (inactive)
same,GI50,[28],> 100 µM (inactive)
same,GI50,[29],> 100 µM (inactive)
same,GI50,[30],> 100 µM (inactive)
same,GI50,[31],> 100 µM (inactive)
same,GI50,[32],> 100 µM (inactive)
same,GI50,[33],> 100 µM (inactive)
same,GI50,[34],> 100 µM (inactive)
same,GI50,[35],> 100 µM (inactive)
same,GI50,[36],> 100 µM (inactive)
same,GI50,[37],> 100 µM (inactive)
same,GI50,[38],> 100 µM (inactive)
same,GI50,[39],> 100 µM (inactive)
same,GI50,[40],> 100 µM (inactive)
same,GI50,[41],> 100 µM (inactive)
same,GI50,[42],> 100 µM (inactive)
same,GI50,[43],> 100 µM (inactive)
same,GI50,[44],> 100 µM (inactive)
same,GI50,[45],> 100 µM (inactive)
same,GI50,[46],> 100 µM (inactive)
same,GI50,[47],> 100 µM
COc1ccccc1/N=N/C(C(=O)c1ccccc1)C(=O)c1ccccc1,GI50,[1],19.2 µM (inactive)
same,GI50,[2],21.6 µM (inactive)
same,GI50,[3],16.9 µM (inactive)
same,GI50,[4],17.2 µM (inactive)
same,GI50,[5],27 µM (inactive)
same,GI50,[7],26.9 µM (inactive)
same,GI50,[48],9.53 µM (inactive)
same,GI50,[8],21.5 µM (inactive)
same,GI50,[9],17.8 µM (inactive)
same,GI50,[10],26.3 µM (inactive)
same,GI50,[11],7.8 µM (inactive)
same,GI50,[12],25.1 µM (inactive)
same,GI50,[13],12.8 µM (inactive)
same,GI50,[49],25.2 µM (inactive)
same,GI50,[14],16.1 µM (inactive)
same,GI50,[15],11.5 µM (inactive)
same,GI50,[50],19.9 µM (inactive)
same,GI50,[16],17.9 µM (inactive)
same,GI50,[17],27.1 µM (inactive)
same,GI50,[18],15 µM (inactive)
same,GI50,[19],19.5 µM (inactive)
same,GI50,[20],18.5 µM (inactive)
same,GI50,[21],17.2 µM (inactive)
same,GI50,[22],14.4 µM (inactive)
same,GI50,[23],16.4 µM (inactive)
same,GI50,[24],12.4 µM (inactive)
same,GI50,[25],15.5 µM (inactive)
same,GI50,[26],15 µM (inactive)
same,GI50,[27],22.5 µM (inactive)
same,GI50,[28],21.1 µM (inactive)
same,GI50,[29],50.2 µM (inactive)
same,GI50,[30],22.4 µM (inactive)
same,GI50,[31],24.4 µM (inactive)
same,GI50,[32],29.2 µM (inactive)
same,GI50,[33],7.91 µM (inactive)
same,GI50,[34],19.6 µM (inactive)
same,GI50,[35],45.1 µM (inactive)
same,GI50,[36],21.4 µM (inactive)
same,GI50,[37],9.48 µM (inactive)
same,GI50,[38],15.2 µM (inactive)
same,GI50,[39],33.3 µM (inactive)
same,GI50,[40],25.9 µM (inactive)
same,GI50,[51],17.6 µM (inactive)
same,GI50,[52],25.2 µM (inactive)
same,GI50,[53],32.1 µM (inactive)
same,GI50,[41],18 µM (inactive)
same,GI50,[42],25.4 µM (inactive)
same,GI50,[54],20.7 µM (inactive)
same,GI50,[43],15.5 µM (inactive)
same,GI50,[44],26.2 µM (inactive)
same,GI50,[45],28.4 µM (inactive)
same,GI50,[46],13.2 µM (inactive)
same,GI50,[47],14.9 µM
O=C(Nc1cc(Cl)c(Cl)cc1Cl)C(=O)C1C=CCS1(=O)=O (configuration not stated),GI50,[1],> 100 µM (inactive)
same,GI50,[2],> 100 µM (inactive)
same,GI50,[3],> 100 µM (inactive)
same,GI50,[4],93.5 µM (inactive)
same,GI50,[5],> 100 µM (inactive)
same,GI50,[6],> 100 µM (inactive)
same,GI50,[7],> 100 µM (inactive)
same,GI50,[48],> 100 µM (inactive)
same,GI50,[8],> 100 µM (inactive)
same,GI50,[9],> 100 µM (inactive)
same,GI50,[10],> 100 µM (inactive)
same,GI50,[11],> 100 µM (inactive)
same,GI50,[55],> 100 µM (inactive)
same,GI50,[12],> 100 µM (inactive)
same,GI50,[13],> 100 µM (inactive)
same,GI50,[49],> 100 µM (inactive)
same,GI50,[14],> 100 µM (inactive)
same,GI50,[15],> 100 µM (inactive)
same,GI50,[50],72.6 µM (inactive)
same,GI50,[16],> 100 µM (inactive)
same,GI50,[17],> 100 µM (inactive)
same,GI50,[56],> 100 µM (inactive)
same,GI50,[18],> 100 µM (inactive)
same,GI50,[20],> 100 µM (inactive)
same,GI50,[57],11.2 µM (inactive)
same,GI50,[21],> 100 µM (inactive)
same,GI50,[22],87.3 µM (inactive)
same,GI50,[23],> 100 µM (inactive)
same,GI50,[24],> 100 µM (inactive)
same,GI50,[25],> 100 µM (inactive)
same,GI50,[26],> 100 µM (inactive)
same,GI50,[27],> 100 µM (inactive)
same,GI50,[28],> 100 µM (inactive)
same,GI50,[29],> 100 µM (inactive)
same,GI50,[30],> 100 µM (inactive)
same,GI50,[31],> 100 µM (inactive)
same,GI50,[58],26.8 µM (inactive)
same,GI50,[32],> 100 µM (inactive)
same,GI50,[33],> 100 µM (inactive)
same,GI50,[34],> 100 µM (inactive)
same,GI50,[35],> 100 µM (inactive)
same,GI50,[36],> 100 µM (inactive)
same,GI50,[37],> 100 µM (inactive)
same,GI50,[38],> 100 µM (inactive)
same,GI50,[39],> 100 µM (inactive)
same,GI50,[40],> 100 µM (inactive)
same,GI50,[51],> 100 µM (inactive)
same,GI50,[52],> 100 µM (inactive)
same,GI50,[53],> 100 µM (inactive)
same,GI50,[41],> 100 µM (inactive)
same,GI50,[42],> 100 µM (inactive)
same,GI50,[54],> 100 µM (inactive)
same,GI50,[43],> 100 µM (inactive)
same,GI50,[44],> 100 µM (inactive)
same,GI50,[45],> 100 µM (inactive)
same,GI50,[46],> 100 µM (inactive)
same,GI50,[47],> 100 µM
